As a reminder, the IC50 is the concentration needed to halve the response being measured.

hDGAT2, sequence (Q96PD7 whole entry): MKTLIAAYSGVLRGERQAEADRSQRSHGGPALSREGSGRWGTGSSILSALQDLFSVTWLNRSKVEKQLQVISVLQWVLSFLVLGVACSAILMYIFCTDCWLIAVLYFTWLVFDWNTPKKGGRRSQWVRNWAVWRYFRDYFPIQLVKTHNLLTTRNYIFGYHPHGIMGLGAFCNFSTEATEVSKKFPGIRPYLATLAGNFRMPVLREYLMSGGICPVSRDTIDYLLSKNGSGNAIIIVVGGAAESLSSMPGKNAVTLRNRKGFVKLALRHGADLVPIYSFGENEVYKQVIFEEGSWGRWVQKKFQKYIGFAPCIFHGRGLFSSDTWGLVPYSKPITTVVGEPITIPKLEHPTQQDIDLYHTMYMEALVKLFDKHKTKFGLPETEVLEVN

The experiment addresses hDGAT2 (Homo sapiens (Human), UniProt Q96PD7). As to the kind of experiment: DGAT2 Enzymatic Activity Assay (triolein formation, LC/MS/MS). Format: biochemical. To be noted: Sf-9 membrane prep expressing hDGAT2; 25 μM diolein, 10 μM oleoyl-CoA; room temperature; read-out: IC50 values for inhibition of DGAT2. Summed up:
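Untagged hDGAT2 in Sf-9 membranes (10 ng/μL) with 25 μM diolein and 10 μM oleoyl-CoA in 100 mM Tris·Cl pH 7.0, 20 mM MgCl2, 5% ethanol at room temperature. Triolein measured by LC/MS/MS against spiked internal standard; IC50 from 4-parameter sigmoidal fit of % inhibition.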
`CC(C)(C)NC(=O)N1CCc2c(-c3cccc(C(F)(F)F)c3)ccc(C(=O)NCc3cnc4ccccn34)c2C1` [Example 66, N^2-(tert-butyl)-N^8-(imidazo[1,2-a]pyridin-3-ylmethyl)-5-(3-(trifluoromethyl)phenyl)-3,4-dihydroisoquinoline-2,8(1H)-dicarboxamide]: the half-maximal inhibitory concentration (IC50) is 53.4 nM. For the compound `Cc1nonc1CNC(=O)c1ccc(-c2cccc(C(F)(F)F)c2)c2c1CN(C(=O)NC(C)(C)C)CC2` [Example 67, N^2-(tert-butyl)-N^8-((4-methyl-1,2,5-oxadiazol-3-yl)methyl)-5-(3-(trifluoromethyl)phenyl)-3,4-dihydroisoquinoline-2,8(1H)-dicarboxamide], the concentration for half-maximal inhibition (IC50) stood at 244 nM.

For the compound `Cn1ccnc1CNC(=O)c1ccc(-c2cccc(C(F)(F)F)c2)c2c1CN(C(=O)NC(C)(C)C)CC2` [Example 68, N^2-(tert-butyl)-N^8-((1-methyl-1H-imidazol-2-yl)methyl)-5-(3-(trifluoromethyl)phenyl)-3,4-dihydroisoquinoline-2,8(1H)-dicarboxamide], the IC50 is 474 nM. Consider `CC(C)(C)NC(=O)N1CCc2c(-c3cccc(C(F)(F)F)c3)ccc(C(=O)NCCn3cnnc3)c2C1` [Example 71, N^8-(2-(4H-1,2,4-triazol-4-yl)ethyl)-N^2-(tert-butyl)-5-(3-(trifluoromethyl)phenyl)-3,4-dihydroisoquinoline-2,8(1H)-dicarboxamide], for which the IC50 came out at 178 nM.

Regarding `CC(NC(=O)c1ccc(-c2cccc(C(F)(F)F)c2)c2c1CN(C(=O)NC(C)(C)C)CC2)c1nncs1` (centres unmarked) [Example 72, N^8-(1-(1,3,4-thiadiazol-2-yl)ethyl)-N^2-(tert-butyl)-5-(3-(trifluoromethyl)phenyl)-3,4-dihydroisoquinoline-2,8(1H)-dicarboxamide], the IC50 was 659 nM. Regarding `CC(NC(=O)c1ccc(-c2cccc(OC(F)(F)F)c2)c2c1CN(C(=O)NC(C)(C)C)CC2)c1nc(-c2ccccn2)no1` (centres unmarked) [Example 73, N^2-(tert-butyl)-N^8-(1-(3-(pyridin-2-yl)-1,2,4-oxadiazol-5-yl)ethyl)-5-(3-(trifluoromethoxy)phenyl)-3,4-dihydroisoquinoline-2,8(1H)-dicarboxamide], the IC50 was determined as 511 nM. As to `CC(C)(C)NC(=O)N1CCc2c(-c3cccc(OC(F)(F)F)c3)ccc(C(=O)NCc3cn4ccsc4n3)c2C1` [Example 74, N^2-(tert-butyl)-N^8-(imidazo[2,1-b]thiazol-6-ylmethyl)-5-(3-(trifluoromethoxy)phenyl)-3,4-dihydroisoquinoline-2,8(1H)-dicarboxamide], the IC50 turned out to be 1540 nM. Consider `CC(C)(C)NC(=O)N1CCc2c(-c3cccc(OC(F)(F)F)c3)ccc(C(=O)NCc3nnc4n3CCC4)c2C1` [Example 75, N^2-(tert-butyl)-N^8-((6,7-dihydro-5H-pyrrolo[2,1-c][1,2,4]triazol-3-yl)methyl)-5-(3-(trifluoromethoxy)phenyl)-3,4-dihydroisoquinoline-2,8(1H)-dicarboxamide], for which the concentration for half-maximal inhibition (IC50) amounted to 2490 nM.

As to `CC(C)(C)NC(=O)N1CCc2c(-c3cccc(OC(F)(F)F)c3)ccc(C(=O)NCCn3ccnn3)c2C1` [Example 76, N^8-(2-(1H-1,2,3-triazol-1-yl)ethyl)-N^2-(tert-butyl)-5-(3-(trifluoromethoxy)phenyl)-3,4-dihydroisoquinoline-2,8(1H)-dicarboxamide], the concentration for half-maximal inhibition (IC50) came out at 2580 nM.

Regarding `CC(CNC(=O)c1ccc(-c2cccc(OC(F)(F)F)c2)c2c1CN(C(=O)NC(C)(C)C)CC2)c1cnco1` (centres unmarked) [Example 77, N^2-(tert-butyl)-N^8-(2-(oxazol-5-yl)propyl)-5-(3-(trifluoromethoxy)phenyl)-3,4-dihydroisoquinoline-2,8(1H)-dicarboxamide], the IC50 is 867 nM. The same measure for `CC(CNC(=O)c1ccc(-c2cccc(OC(F)(F)F)c2)c2c1CN(C(=O)NC(C)(C)C)CC2)c1cccnc1` (centres unmarked) [Example 78, N^2-(tert-butyl)-N^8-(2-(pyridin-3-yl)propyl)-5-(3-(trifluoromethoxy)phenyl)-3,4-dihydroisoquinoline-2,8(1H)-dicarboxamide]: 1180 nM. As for `CC(C)(C)NC(=O)N1CCc2c(-c3cccc(OC(F)(F)F)c3)ccc(C(=O)NCc3cccc4ccnn34)c2C1` [Example 79, N^2-(tert-butyl)-N^8-(pyrazolo[1,5-a]pyridin-7-ylmethyl)-5-(3-(trifluoromethoxy)phenyl)-3,4-dihydroisoquinoline-2,8(1H)-dicarboxamide], the IC50 came out at 149 nM.

`CC(C)(C)NC(=O)N1CCc2c(-c3cccc(OC(F)(F)F)c3)ccc(C(=O)NCc3cc(-c4ccccn4)no3)c2C1` [Example 80, N^2-(tert-butyl)-N^8-((3-(pyridin-2-yl)isoxazol-5-yl)methyl)-5-(3-(trifluoromethoxy)phenyl)-3,4-dihydroisoquinoline-2,8(1H)-dicarboxamide]: the half-inhibitory concentration (IC50) was 524 nM. On to `CC(C)(C)NC(=O)N1CCc2c(-c3cccc(OC(F)(F)F)c3)ccc(C(=O)NCc3cnn4ccccc34)c2C1` [Example 81, N^2-(tert-butyl)-N^8-(pyrazolo[1,5-a]pyridin-3-ylmethyl)-5-(3-(trifluoromethoxy)phenyl)-3,4-dihydroisoquinoline-2,8(1H)-dicarboxamide], for which the half-inhibitory concentration (IC50) was found to be 370 nM.

Values taken from patent publication US9877957B2, “Tetrahydroisoquinoline derivatives useful as inhibitors of diacylglyceride O-acyltransferase 2” (Merck Sharp & Dohme Corp., priority 2014, dated 2018).
